Experimental data as given in ChEMBL document CHEMBL3813680, “Discovery of a 2-hydroxyacetophenone derivative as an outstanding linker to enhance potency and β-selectivity of liver X receptor agonist” (Bioorg Med Chem, 2016).
Active and inactive are the calls of the source. No cut-off for these calls is given here.

Experiments:
[1] = biological target: T1, Oxysterols receptor LXR-beta (Homo sapiens) (UniProt P55055); test: Agonist activity at GAL4 fused LXRbeta-LBD (unknown origin) transfected in CHOK1 cells at 10 uM after 24 hrs by luciferase reporter gene assay; format: cell-based; details: CHO-K1
T1 sequence (whole entry): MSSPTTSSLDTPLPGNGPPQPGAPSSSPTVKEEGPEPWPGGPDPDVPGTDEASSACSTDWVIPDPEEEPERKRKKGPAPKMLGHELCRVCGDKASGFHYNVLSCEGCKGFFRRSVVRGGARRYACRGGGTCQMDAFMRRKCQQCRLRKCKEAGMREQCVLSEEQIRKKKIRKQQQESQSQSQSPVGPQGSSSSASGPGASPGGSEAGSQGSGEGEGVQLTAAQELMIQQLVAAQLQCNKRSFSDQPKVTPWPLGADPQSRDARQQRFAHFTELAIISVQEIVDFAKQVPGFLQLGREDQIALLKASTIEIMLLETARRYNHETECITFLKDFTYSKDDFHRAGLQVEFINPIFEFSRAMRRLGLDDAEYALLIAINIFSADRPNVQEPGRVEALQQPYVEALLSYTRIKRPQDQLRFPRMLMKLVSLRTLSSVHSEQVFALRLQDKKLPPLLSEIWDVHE

[2] = biological target: T2, Oxysterols receptor LXR-alpha (Homo sapiens) (UniProt Q13133); test: Agonist activity at GAL4 fused LXRalpha (unknown origin) transfected in CHOK1 cells at 10 uM after 24 hrs by luciferase reporter gene assay in presence of T0901317; format: cell-based; details: CHO-K1
T2 sequence (whole entry): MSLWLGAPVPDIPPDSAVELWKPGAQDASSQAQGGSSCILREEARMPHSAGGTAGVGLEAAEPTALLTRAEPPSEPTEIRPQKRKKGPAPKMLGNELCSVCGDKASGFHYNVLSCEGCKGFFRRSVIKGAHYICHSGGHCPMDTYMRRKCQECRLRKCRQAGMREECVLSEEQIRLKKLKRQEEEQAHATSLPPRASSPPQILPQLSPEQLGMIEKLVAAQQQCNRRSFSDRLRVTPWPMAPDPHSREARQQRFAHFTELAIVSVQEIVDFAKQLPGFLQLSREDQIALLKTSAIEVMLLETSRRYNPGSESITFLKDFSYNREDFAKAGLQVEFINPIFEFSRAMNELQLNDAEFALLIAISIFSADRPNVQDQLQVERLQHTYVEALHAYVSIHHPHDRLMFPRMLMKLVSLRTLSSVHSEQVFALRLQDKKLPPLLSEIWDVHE

[3] = biological target: T1, Oxysterols receptor LXR-beta (Homo sapiens); test: Agonist activity at GAL4 fused LXRbeta-LBD (unknown origin) transfected in CHOK1 cells at 10 uM after 24 hrs by luciferase reporter gene assay in presence of T0901317; format: cell-based; details: CHO-K1
[4] = biological target: T2, Oxysterols receptor LXR-alpha (Homo sapiens); test: Agonist activity at GAL4 fused LXRalpha (unknown origin) transfected in CHOK1 cells at 10 uM after 24 hrs by luciferase reporter gene assay; format: cell-based; details: CHO-K1
Mus musculus [5] = test: Antiatherosclerosis activity in LDL receptor knock out mouse model assessed as decrease in LDL-C levels at 3 mg/kg, po by HPLC analysis relative to control; format: functional; set-up: scale not given: the % may be the effect or the level left
[6] = AUC in mouse plasma at 10 mg/kg, po measured up to 24 hrs by HPLC-LC-MS/MS analysis; format: ADME, organism-based; set-up: time < 24 hr, dose 10 mg/kg, route oral
Mus musculus [7] = test: Upregulation of ABCA1 mRNA expression in LDL receptor knock-out mouse blood at 3 mg/kg, po relative to control; format: functional
Mus musculus [8] = test: Antiatherosclerosis activity in LDL receptor knock out mouse model assessed as increase in TC levels at 3 mg/kg, po by HPLC analysis relative to control; format: functional
Mus musculus [9] = test: Antiatherosclerosis activity in LDL receptor knock out mouse model assessed as increase in TC levels at 1 mg/kg, po by HPLC analysis relative to control; format: functional
[10] = biological target: T3, Oxysterols receptor LXR-beta (Homo sapiens, UniProt P55055); test: Agonist activity at GAL4 fused LXRbeta-LBD (unknown origin) transfected in CHOK1 cells after 24 hrs by luciferase reporter gene assay
T3 sequence (P55055 whole entry): T1 sequence (whole entry)

Mus musculus [11] = test: Antiatherosclerosis activity in LDL receptor knock out mouse model assessed as decrease in area of lipid accumulation at 1 mg/kg, po by HPLC analysis relative to control; format: functional; set-up: scale not given: the % may be the effect or the level left
[12] = Cmax in mouse plasma at 10 mg/kg, po measured up to 24 hrs by HPLC-LC-MS/MS analysis; format: ADME, organism-based; set-up: dose 10 mg/kg, route oral
Mus musculus [13] = test: Antiatherosclerosis activity in LDL receptor knock out mouse model assessed as LDL-C levels at 1 mg/kg, po by HPLC analysis relative to control; format: functional
Mus musculus [14] = test: Upregulation of SREBP-1c expression in LDL receptor knock-out mouse liver at 1 mg/kg, po relative to control; format: functional
Mus musculus [15] = test: Antiatherosclerosis activity in LDL receptor knock out mouse model assessed as increase in HDL-C levels at 3 mg/kg, po by HPLC analysis relative to control; format: functional
Mus musculus [16] = test: Upregulation of SREBP-1c expression in LDL receptor knock-out mouse liver at 3 mg/kg, po relative to control; format: functional
Mus musculus [17] = test: Antiatherosclerosis activity in LDL receptor knock out mouse model assessed as decrease in area of lipid accumulation at 3 mg/kg, po by HPLC analysis relative to control; format: functional; set-up: scale not given: the % may be the effect or the level left
Mus musculus [18] = test: Antiatherosclerosis activity in LDL receptor knock out mouse model assessed as increase in TG levels at 1 mg/kg, po by HPLC analysis relative to control; format: functional
[19] = biological target: T4, Oxysterols receptor LXR-alpha (Homo sapiens, UniProt Q13133); test: Agonist activity at GAL4 fused LXRalpha (unknown origin) transfected in CHOK1 cells after 24 hrs by luciferase reporter gene assay
T4 sequence (Q13133 whole entry): T2 sequence (whole entry)

Mus musculus [20] = test: Antiatherosclerosis activity in LDL receptor knock out mouse model assessed as increase in TG levels at 3 mg/kg, po by HPLC analysis relative to control; format: functional
Mus musculus [21] = test: Upregulation of ABCA1 mRNA expression in LDL receptor knock-out mouse blood at 1 mg/kg, po relative to control; format: functional
Mus musculus [22] = test: Antiatherosclerosis activity in LDL receptor knock out mouse model assessed as increase in HDL-C levels at 1 mg/kg, po by HPLC analysis relative to control; format: functional
Mus musculus [23] = test: Antiatherosclerosis activity in LDL receptor knock out mouse model assessed as decrease in LDL-C levels at 10 mg/kg, po by HPLC analysis relative to control; format: functional; set-up: scale not given: the % may be the effect or the level left
Mus musculus [24] = test: Antiatherosclerosis activity in LDL receptor knock out mouse model assessed as decrease in area of lipid accumulation at 10 mg/kg, po by HPLC analysis relative to control; format: functional; set-up: scale not given: the % may be the effect or the level left
Mus musculus [25] = test: Antiatherosclerosis activity in LDL receptor knock out mouse model assessed as […] in HDL-C levels at 10 mg/kg, po by HPLC analysis relative to control; format: functional; set-up: scale not given: the % may be the effect or the level left
Mus musculus [26] = test: Antiatherosclerosis activity in LDL receptor knock out mouse model assessed as increase in TG levels at 10 mg/kg, po by HPLC analysis relative to control; format: functional
Mus musculus [27] = test: Antiatherosclerosis activity in LDL receptor knock out mouse model assessed as decrease in TC levels at 10 mg/kg, po by HPLC analysis relative to control; format: functional; set-up: scale not given: the % may be the effect or the level left
[28] = Intrinsic clearance in mouse liver microsomes at 1 umol/L; format: ADME; details: read-out: CLH
[29] = Intrinsic clearance in hamster liver microsomes at 1 umol/L; format: ADME; details: cricetinae, read-out: CLH
[30] = Intrinsic clearance in human liver microsomes at 1 umol/L; format: ADME; details: read-out: CLH
CHO-K1 = test: Selectivity ratio of EC50 for GAL4 fused LXRalpha (unknown origin) transfected in CHOK1 cells to EC50 for GAL4 fused LXRbeta-LBD (unknown origin) transfected in CHOK1 cells; format: cell-based; details: Homo sapiens
[31] = Cmax in mouse plasma at 100 mg/kg, po measured up to 24 hrs by HPLC-LC-MS/MS analysis; format: ADME, organism-based; set-up: dose 100 mg/kg, route oral
[32] = AUC in mouse plasma at 100 mg/kg, po measured up to 24 hrs by HPLC-LC-MS/MS analysis; format: ADME, organism-based; set-up: dose 100 mg/kg, time < 24 hr, route oral

Structure (SMILES)	Emax [2] [%]	Emax [3] [%]	Activity [4]	EC50 [10] [µM]	EC50 [19] [µM]	Ratio EC50 (CHO-K1)	also measured
CCCc1cc(C(O)(C(F)(F)F)C(F)(F)F)cc(CCC)c1OC/C=C\CN1C(=O)NC(C)(c2ccc(OC(C)C)cc2)C1=O (configuration not stated)	0	1	inactive	–	–	–	Activity [1]: inactive
CCCc1cc(C(O)(C(F)(F)F)C(F)(F)F)ccc1Oc1ccc(C(=O)CN2C(=O)NC(C)(c3ccc(OC(C)C)cn3)C2=O)c(O)c1 (single isomer, unassigned; (-))	–	–	–	0.007	0.2	–	Activity (Mus musculus [5]): 97%; AUC at 24 h [6]: 3030 ng·h/mL; fold change (FC) (Mus musculus [7]): 3; Activity (Mus musculus [8]): 102%; Activity (Mus musculus [9]): 111%; Activity (Mus musculus [11]): 62%; Cmax [12]: 503 ng/mL; Activity (Mus musculus [13]): 108%; fold change (FC) (Mus musculus [14]): 1.2; Activity (Mus musculus [15]): 116%; fold change (FC) (Mus musculus [16]): 1.5; Activity (Mus musculus [17]): 59%; Activity (Mus musculus [18]): 152%; Activity (Mus musculus [20]): 166%; fold change (FC) (Mus musculus [21]): 2.1; Activity (Mus musculus [22]): 115%
O=S(=O)(c1ccccc1)N(CC(F)(F)F)c1ccc(C(O)(C(F)(F)F)C(F)(F)F)cc1 [T091317]	–	–	–	–	–	–	Activity (Mus musculus [23]): 55%; Activity (Mus musculus [24]): 40%; Activity (Mus musculus [25]): 47%; Activity (Mus musculus [26]): 465%; Activity (Mus musculus [27]): 96%
CCCc1cc(C(O)(C(F)(F)F)C(F)(F)F)ccc1Oc1ccc(C(=O)CN2C(=O)NC(C)(c3ccc(OC(C)C)cc3)C2=O)c(O)c1 (configuration not stated)	55	348	–	0.11	0.34	3.09	microsomal CLint at 1 µM [28]: 76 µL/min/mg; microsomal CLint at 1 µM [29]: 27 µL/min/mg; microsomal CLint at 1 µM [30]: 12 µL/min/mg
CCCc1cc(C(O)(C(F)(F)F)C(F)(F)F)cc(CCC)c1OCCCCN1C(=O)NC(C)(c2ccc(OC(C)C)cc2)C1=O (racemic)	–	–	–	–	–	–	Cmax [31]: 406 ng/mL; AUC at 24 h [32]: 3420 ng·h/mL
CCCc1cc(C(O)(C(F)(F)F)C(F)(F)F)ccc1Oc1ccc(CCN2C(=O)NC(C)(c3ccc(OC(C)C)cc3)C2=O)c(OC)c1 (configuration not stated)	0	534	inactive	1.66	–	6.02	–
CCCc1cc(C(O)(C(F)(F)F)C(F)(F)F)ccc1Oc1ccc(C(=O)CN2C(=O)NC(C)(c3ccc(OC(C)C)cn3)C2=O)c(O)c1 (racemic)	–	–	–	0.058	0.33	–	microsomal CLint at 1 µM [28]: 24 µL/min/mg; microsomal CLint at 1 µM [29]: 11 µL/min/mg; microsomal CLint at 1 µM [30]: 7 µL/min/mg
CCCc1cc(C(O)(C(F)(F)F)C(F)(F)F)ccc1Oc1ccc(CN2C(=O)NC(C)(c3ccc(OC(C)C)cc3)C2=O)cc1 (configuration not stated)	0	22	inactive	1.81	–	> 5.52	–
CCCc1cc(C(O)(C(F)(F)F)C(F)(F)F)ccc1Oc1ccc(C(O)CN2C(=O)NC(C)(c3ccc(OC(C)C)cc3)C2=O)cc1 (configuration not stated)	5	176	inactive	2.33	–	4.29	–
CCCc1cc(C(O)(C(F)(F)F)C(F)(F)F)ccc1Oc1ccc(CCN2C(=O)NC(C)(c3ccc(OC(C)C)cc3)C2=O)cc1 (configuration not stated)	1	223	inactive	1.88	–	> 5.32	–
